According to PubChem BioAssay AID651630 (Sanford-Burnham Center for Chemical Genomics, 2012):
pIC50: −log10 of the molar value. Calls of active or inactive are those of the source.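 How the source made its calls: active means lipid-stain IC50 at or below a set limit, with nuclear-stain toxicity IC50 at least five times higher; inactive means the rest.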

How the values were obtained:
DAPI = test: triacylglycerol accumulation inhibitor potency, dose response, cell-based, panel, Nile Red and DAPI fluorescence, H9c2 (AID 651630); settings: H9c2 cells, DAPI nuclear fluorescence (cytotoxicity counter-readout), oleic acid;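 further: cells exposed to compound overnight before fixation and staining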
TAG = test: as above; settings: H9c2 cells, Nile Red TAG fluorescence, oleic acid

| Compound | IC50 cytotoxicity (DAPI nuclear signal decrease) (DAPI; mean of runs) | IC50 cytotoxicity (DAPI nuclear signal decrease) (DAPI; run 1) [µM] | IC50 cytotoxicity (DAPI nuclear signal decrease) (DAPI; run 2) [µM] | IC50 (TAG; mean of runs) | pIC50 (TAG; run 1) | pIC50 (TAG; run 2) | pIC50 (TAG; mean of runs) |
| --- | --- | --- | --- | --- | --- | --- | --- |
| COc1cc(C#Cc2c(-c3cncn3C)n(C)c3ccc(-c4cc(OC)c(OC)c(OC)c4)cc23)cc(OC)c1 | > 25 µM (inactive) | > 25 | > 25 | > 25 µM (inactive) | < 4.60 | < 4.60 | – |
| COc1ccc(NC(=O)C2(C)Cc3c(-c4cccc(C(N)=O)c4)ccnc3O2)cn1 (configuration not stated) | > 25 µM (inactive) | > 25 | > 25 | 18.5 µM (inactive) | 4.74 | 4.72 | – |
| CCOC(=O)C(C)Oc1cccc2c(=O)n(CC(=O)NCc3ccc4c(c3)OCO4)ccc12 (configuration not stated) | > 25 µM (inactive) | > 25 | > 25 | 18 µM (inactive) | 4.74 | 4.75 | – |
| Cc1ccc(NC(=O)c2cc([N+](=O)[O-])ccc2NCc2cccnc2)cc1Cl | > 25 µM (inactive) | > 25 | > 25 | – | 4.98 | 4.75 | 4.85 |
| COc1cc2c(c(OC)c1OC)-c1ccc(SC)c(=O)cc1C(NC=O)CC2 (configuration not stated) | > 25 µM (inactive) | > 25 | > 25 | > 25 µM (inactive) | < 4.60 | < 4.60 | – |
| Cc1ccc(-c2nn(-c3ccccc3)cc2NC(=O)CCl)cc1 | – | 20.6 | > 25 | > 25 µM (inactive) | < 4.60 | < 4.60 | – |
| Cc1ccc(Cl)cc1NC(=S)N/N=C/c1cccc2ccccc12 | > 25 µM (inactive) | > 25 | > 25 | – | 4.70 | < 4.60 | – |
| Cc1cc(N/N=C/c2ccc(F)cc2)nc(-n2nc(C)cc2C)n1 | > 25 µM (inactive) | > 25 | > 25 | > 25 µM (inactive) | < 4.60 | < 4.60 | – |
| Cc1ccc(/C=N/NC(=O)Cc2c[nH]c3ccccc23)c(C)c1 | > 25 µM (inactive) | > 25 | > 25 | – | 4.70 | < 4.60 | – |
| COc1ccc(CNC(=O)C2CCN(c3nc(-c4ccccc4)nc4c3CCC4)CC2)cc1 | > 25 µM (inactive) | > 25 | > 25 | – | 4.94 | 4.79 | 4.86 |
| Fc1ccc(Oc2nc(-c3ccccn3)nc3ccccc23)cc1 | > 25 µM (inactive) | > 25 | > 25 | > 25 µM (inactive) | < 4.60 | < 4.60 | – |
| Cc1cccc(-c2ccc3[nH]c4c(c3c2)CCN2C[C@@H]([C@H](C)OC(=O)Nc3ccccc3C)[C@@H](N(C)C(=O)Nc3ccccc3C)C[C@@H]42)c1 | > 25 µM (inactive) | > 25 | > 25 | 15.6 µM (inactive) | 4.81 | 4.81 | – |
| NC(=O)c1cccc(-c2ccnc3c2CC(C(=O)NCc2ccccc2)O3)c1 (configuration not stated) | > 25 µM (inactive) | > 25 | > 25 | > 25 µM (inactive) | < 4.60 | < 4.60 | – |
| O=C(Nc1cccc(-c2csc(Nc3ccc(Cl)cc3)n2)c1)c1cc([N+](=O)[O-])cc(C(F)(F)F)c1 | > 25 µM (inactive) | > 25 | > 25 | – | 4.87 | 4.84 | 4.86 |
| Cc1cccc2c(C(=O)N3CCN(c4ccccc4)CC3)cc(-c3ccncc3)nc12 | > 25 µM (inactive) | > 25 | > 25 | – | 5.11 | 5.08 | 5.09 |
| COc1cc(C#Cc2c(-c3cncn3C)n(C)c3ccc(-c4ccc5[nH]ccc5c4)cc23)cc(OC)c1 | – | > 25 | > 25 | – | 5.42 | 5.34 | 5.38 |
| Brc1ccc(-c2csc(NNC3=NCCCCC3)n2)cc1 | – | 21.6 | > 25 | – | 5.81 | 5.67 | 5.73 |
